Laboratory results published in US10538495B2, “Modulators of indoleamine 2,3-dioxygenase” (GLAXOSMITHKLINE INTELLECTUAL PROPERTY DEVELOPMENT LIMITED, priority 2016, dated 2020).
Structures can show the parent of a compound that is named as a salt.

molecular target: indoleamine 2,3-dioxygenase (IDO1) (Homo sapiens, UniProt P14902); assay: HeLa IDOi assay (kynurenine by mass spectrometry); assay type: cell-based; design: human epithelial HeLa cells (CCL-2; host or cells: HeLa cells stimulated with human IFN-γ; settings: IFN-γ stimulated HeLa cells, 2 days, kynurenine detected by mass spectrometry; read-out: HeLa pIC50 (converted)
Experimental: Brief descriptions of the cellular assays are provided following the table.
Compounds of the present invention were tested via high-throughput cellular assays utilizing detection of kynurenine via mass spectrometry and cytotoxicity as end-points. For the mass spectrometry and cytotoxicity assays, human epithelial HeLa cells (CCL-2; ATCC®, Manassas, Va.) were stimulated with human interferon-γ (IFN-γ) (Sigma-Aldrich Corporation, St. Louis, Mo.) to induce the expression of indoleamine 2,3-dioxygenase (IDO1). Compounds with IDO1 inhibitory properties decreased the amount of kynurenine produced by the cells via the tryptophan catabolic pathway. Cellular toxicity due to the effect of compound treatment was measured using CellTiter-Glo® reagent (CTG) (Promega Corporation, Madison, Wis.), which is based on luminescent detection of ATP, an indicator of metabolically active cells.
In preparation for the assays, test compounds were serially diluted 3-fold in DMSO from a typical top concentration of 5 mM and plated at 0.5 μL in 384-well, polystyrene, clear bottom, tissue culture treated plates with lids (Greiner Bio-One, Kremsmünster, Austria) to generate 11-point dose response curves. Low control wells (0% kynurenine or 100% cytotoxicity) contained either 0.5 μL of DMSO in the presence of unstimulated (−IFN-γ) HeLa cells for the mass spectrometry assay or 0.5 μL of DMSO in the absence of cells for the cytotoxicity assay, and high control wells (100% kynurenine or 0% cytotoxicity) contained 0.5 μL of DMSO in the presence of stimulated (+IFN-γ) HeLa cells for both the mass spectrometry and cytotoxicity assays.
Frozen stocks of HeLa cells were washed and recovered in DMEM high glucose medium with HEPES (Thermo Fisher Scientific, Inc., Waltham, Mass.) supplemented with 10% v/v certified fetal bovine serum (FBS) (Thermo Fisher Scientific, Inc., Waltham, Mass.), and 1× penicillin-streptomycin antibiotic solution (Thermo Fisher Scientific, Inc., Waltham, Mass.). The cells were diluted to 100,000 cells/mL in the supplemented DMEM medium. 50 μL of either the cell suspension, for the mass spectrometry assay, or medium alone, for the cytotoxicity assay, were added to the low control wells, on the previously prepared 384-well compound plates, resulting in 5,000 cells/well or 0 cells/well respectively. IFN-γ was added to the remaining cell suspension at a final concentration of 10 nM, and 50 μL of the stimulated cells were added to all remaining wells on the 384-well compound plates. The plates, with lids, were then placed in a 37° C., 5% CO2 humidified incubator for 2 days.
Following incubation, the 384-well plates were removed from the incubator and allowed to equilibrate to room temperature for 30 minutes. For the cytotoxicity assay, CellTiter-Glo® was prepared according to the manufacturer's instructions, and 10 μL were added to each plate well. After a twenty minute incubation at room temperature, luminescence was read on an EnVision® Multilabel Reader (PerkinElmer Inc., Waltham, Mass.). For the mass spectrometry assay, 10 μL of supernatant from each well of the compound-treated plates were added to 40 μL of acetonitrile, containing 10 μM of an internal standard for normalization, in 384-well, polypropylene, V-bottom plates (Greiner Bio-One, Kremsmünster, Austria) to extract the organic analytes. Following centrifugation at 2000 rpm for 10 minutes, 10 μL from each well of the acetonitrile extraction plates were added to 90 μL of sterile, distilled H2O in 384-well, polypropylene, V-bottom plates for analysis of kynurenine and the internal standard on the RapidFire 300 (Agilent Technologies, Santa Clara, Calif.) and 4000 QTRAP MS (SCIEX, Framingham, Mass.). MS data were integrated using Agilent Technologies' RapidFire Integrator software, and data were normalized for analysis as a ratio of kynurenine to the internal standard. […]

Chain of indoleamine 2,3-dioxygenase (IDO1) (P14902 whole entry): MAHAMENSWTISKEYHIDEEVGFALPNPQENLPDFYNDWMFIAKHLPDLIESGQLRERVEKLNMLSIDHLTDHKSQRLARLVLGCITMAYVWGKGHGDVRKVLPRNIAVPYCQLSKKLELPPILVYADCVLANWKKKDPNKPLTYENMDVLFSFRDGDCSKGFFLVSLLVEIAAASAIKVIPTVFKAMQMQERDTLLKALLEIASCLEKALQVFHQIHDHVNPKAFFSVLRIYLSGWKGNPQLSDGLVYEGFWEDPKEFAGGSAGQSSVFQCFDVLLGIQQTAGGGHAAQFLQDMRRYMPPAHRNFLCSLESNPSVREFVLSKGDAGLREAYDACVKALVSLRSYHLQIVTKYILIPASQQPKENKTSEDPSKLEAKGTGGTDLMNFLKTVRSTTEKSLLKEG

Row | IC50 [nM] | SMILES
1 | > 10000 | CC(C)(C)Sc1ccc(-c2ccccc2-c2nn[nH]n2)cc1NC(=O)Cc1cnccn1 [Example 5, N-(4-(tert-butylthio)-2′-(2H-tetrazol-5-yl)-[1,1′-biphenyl]-3-yl)-2-(pyrazin-2-yl)acetamide]
2 | 6310 | CC(C)(C)Sc1ccc(-c2ccccc2-c2nn[nH]n2)cc1NC(=O)Cc1ccncc1 [Example 6, N-(4-(tert-butylthio)-2′-(2H-tetrazol-5-yl)-[1,1′-biphenyl]-3-yl)-2-(pyridin-4-yl)acetamide]
3 | 5010 | CC(C)(C)Sc1ccc(-c2ccccc2-c2nn[nH]n2)cc1NC(=O)Cc1ccc(C#N)cc1 [Example 7, N-(4-(tert-butylthio)-2′-(2H-tetrazol-5-yl)-[1,1′-biphenyl]-3-yl)-2-(4-cyanophenyl)acetamide]
4 | 6310 | Cc1cc(CC(=O)Nc2cc(-c3ccccc3-c3nn[nH]n3)ccc2SC(C)(C)C)on1 [Example 8, N-(4-(tert-butylthio)-2′-(2H-tetrazol-5-yl)-[1,1′-biphenyl]-3-yl)-2-(3-methylisoxazol-5-yl)acetamide]
5 | > 10000 | CC(C)(C)Sc1ccc(-c2ccccc2-c2nn[nH]n2)cc1NC(=O)Cc1cncnc1 [Example 9, N-(4-(tert-butylthio)-2′-(2H-tetrazol-5-yl)-[1,1′-biphenyl]-3-yl)-2-(pyrimidin-5-yl)acetamide]
6 | 1000 | COCCCSc1ccc(-c2ccccc2-c2nn[nH]n2)cc1NC(=O)Cc1ccc(C)cc1 [Example 11, N-(4-((3-methoxypropyl)thio)-2′-(2H-tetrazol-5-yl)-[1,1′-biphenyl]-3-yl)-2-(p-tolyl)acetamide]
7 | 5010 | Cc1ccc(CC(=O)Nc2cc(-c3ccccc3-c3nn[nH]n3)ccc2SC2CCOCC2)cc1 [Example 12, N-(4-((tetrahydro-2H-pyran-4-yl)thio)-2′-(2H-tetrazol-5-yl)-[1,1′-biphenyl]-3-yl)-2-(p-tolyl)acetamide]
8 | 2510 | CC(C)(C)Sc1ccc(-c2ccccc2-c2nn[nH]n2)cc1NC(=O)CC1CC1 [Example 17, N-(4-(tert-butylthio)-2′-(2H-tetrazol-5-yl)-[1,1′-biphenyl]-3-yl)-2-cyclopropylacetamide]
9 | 3980 | CC(C)(C)Sc1ccc(-c2ccccc2-c2nn[nH]n2)cc1NC(=O)CC1CCCCC1 [Example 18, N-(4-(tert-butylthio)-2′-(2H-tetrazol-5-yl)-[1,1′-biphenyl]-3-yl)-2-cyclohexylacetamide]
10 | 20 | Cc1ccc(CC(=O)Nc2cc(-c3ccccc3-c3nn[nH]n3)ccc2SC(C)(C)C)cc1F [Example 21, N-(4-(tert-butylthio)-2′-(2H-tetrazol-5-yl)-[1,1′-biphenyl]-3-yl)-2-(3-fluoro-4-methylphenyl)acetamide]
11 | 31.6 | COc1ccc(CC(=O)Nc2cc(-c3ccccc3-c3nn[nH]n3)ccc2SC(C)(C)C)cc1 [Example 22, N-(4-(tert-butylthio)-2′-(2H-tetrazol-5-yl)-[1,1′-biphenyl]-3-yl)-2-(4-methoxyphenyl)acetamide]
12 | 63.1 | COc1ccc(CC(=O)Nc2cc(-c3ccccc3-c3nn[nH]n3)ccc2SC(C)(C)C)cc1F [Example 23, N-(4-(tert-butylthio)-2′-(2H-tetrazol-5-yl)-[1,1′-biphenyl]-3-yl)-2-(3-fluoro-4-methoxyphenyl)acetamide]
13 | 398 | CC(C)(C)Sc1ccc(-c2ccccc2-c2nn[nH]n2)cc1NC(=O)Cc1ccc(F)cc1 [Example 24, N-(4-(tert-butylthio)-2′-(2H-tetrazol-5-yl)-[1,1′-biphenyl]-3-yl)-2-(4-fluorophenyl)acetamide]
14 | 398 | CC(C)(C)Sc1ccc(-c2ccccc2-c2nn[nH]n2)cc1NC(=O)Cc1ccccc1 [Example 25, N-(4-(tert-butylthio)-2′-(2H-tetrazol-5-yl)-[1,1′-biphenyl]-3-yl)-2-phenylacetamide]
15 | 794 | Cc1ccc(CC(=O)Nc2cc(-c3ccccc3-c3nn[nH]n3)ccc2SC(C)(C)C)nc1 [Example 26, N-(4-(tert-butylthio)-2′-(2H-tetrazol-5-yl)-[1,1′-biphenyl]-3-yl)-2-(5-methylpyridin-2-yl)acetamide]
16 | 5010 | CC(C)(C)OC(=O)N1CCC(CC(=O)Nc2cc(-c3ccccc3-c3nn[nH]n3)ccc2SC(C)(C)C)CC1 [Example 29]
17 | > 10000 | CC(C)(C)Sc1ccc(-c2ccccc2-c2nn[nH]n2)cc1NC(=O)CC1CCNCC1 [Example 30, N-(4-(tert-butylthio)-2′-(2H-tetrazol-5-yl)-[1,1′-biphenyl]-3-yl)-2-(piperidin-4-yl)acetamide Hydrochloride]
18 | > 10000 | CC(=O)N1CCC(CC(=O)Nc2cc(-c3ccccc3-c3nn[nH]n3)ccc2SC(C)(C)C)CC1 [Example 31, 2-(1-Acetylpiperidin-4-yl)-N-(4-(tert-butylthio)-2′-(2H-tetrazol-5-yl)-[1,1′-biphenyl]-3-yl)acetamide]
19 | > 10000 | CC(C)(C)Sc1ccc(-c2ccccc2-c2nn[nH]n2)cc1NC(=O)CC1CCN(S(C)(=O)=O)CC1 [Example 32, N-(4-(tert-butylthio)-2′-(2H-tetrazol-5-yl)-[1,1′-biphenyl]-3-yl)-2-(1-(methylsulfonyl)piperidin-4-yl)acetamide]
20 | 7940 | COCC(=O)Nc1cc(-c2ccccc2-c2nn[nH]n2)ccc1SC(C)(C)C [Example 33, N-(4-(tert-butylthio)-2′-(2H-tetrazol-5-yl)-[1,1′-biphenyl]-3-yl)-2-methoxyacetamide]
21 | 100 | CC(C)(C)Sc1ccc(-c2ccccc2-c2nn[nH]n2)cc1NC(=O)Cc1ccc2c(c1)OCO2 [Example 38, 2-(Benzo[d][1,3]dioxol-5-yl)-N-(4-(tert-butylthio)-2′-(2H-tetrazol-5-yl)-[1,1′-biphenyl]-3-yl)acetamide]
22 | 126 | CC(C)(C)Sc1ccc(-c2ccccc2-c2nn[nH]n2)cc1Nc1nc(Cl)ns1 [Example 42, N-(4-(tert-butylthio)-2′-(2H-tetrazol-5-yl)-[1,1′-biphenyl]-3-yl)-3-chloro-1,2,4-thiadiazol-5-amine]
23 | 2510 | CC(CC(=O)O)c1ccc(SC(C)(C)C)c(Nc2nc(Cl)ns2)c1 (stereo not drawn) [Example 45, 3-(4-(tert-Butylthio)-3-((3-chloro-1,2,4-thiadiazol-5-yl)amino)phenyl)butanoic Acid]
24 | 1000 | Cc1ccc(CC(=O)Nc2cc(-c3ccccc3-c3nnn(COP(=O)(OC(C)(C)C)OC(C)(C)C)n3)ccc2SC(C)(C)C)cc1 [Example 49, di-tert-butyl ((5-(4′-(tert-butylthio)-3′-(2-(p-tolyl)acetamido)-[1,1′-biphenyl]-2-yl)-2H-tetrazol-2-yl)methyl) phosphate]
25 | 126 | Cc1ccc(CC(=O)Nc2cc(-c3ccccc3-c3nnnn3COP(=O)(OC(C)(C)C)OC(C)(C)C)ccc2SC(C)(C)C)cc1 [Example 50, di-tert-butyl ((5-(4′-(tert-butylthio)-3′-(2-(p-tolyl)acetamido)-[1,1′-biphenyl]-2-yl)-1H-tetrazol-1-yl)methyl) phosphate]
26 | 25.1 | CC(=O)OCn1nnc(-c2ccccc2-c2ccc(SC(C)(C)C)c(NC(=O)Cc3ccc(C)cc3)c2)n1 [Example 57, (5-(4′-(tert-Butylthio)-3′-(2-(p-tolyl)acetamido)-[1,1′-biphenyl]-2-yl)-2H-tetrazol-2-yl)methyl Acetate]
27 | 39.8 | CC(=O)OCn1nnnc1-c1ccccc1-c1ccc(SC(C)(C)C)c(NC(=O)Cc2ccc(C)cc2)c1 [Example 58, (5-(4′-(tert-butylthio)-3′-(2-(p-tolyl)acetamido)-[1,1′-biphenyl]-2-yl)-1H-tetrazol-1-yl)methyl Acetate]
